Source: US6037490A, “Boron-containing amino carboxylic acid compounds and uses thereof” (priority 1997, dated 2000)
“Also recorded” adds a separate entry of the source. Where two headings read alike, the source gives them in different places.

What was measured:
tumor cells [1] = conditions: cited from earlier work; for ratio of boron in tumor cells compared to normal cells: in vivo
A549 lung cancer cells [2] = conditions: for level above which all cell growth is suppressed: human, 10080 min
Protocol: (§1) The cells were plated for undisturbed colony growth for seven to ten days and a survival assay was performed. Colonies were washed with isotonic saline and absolute methanol before staining with Giemsa and standard colony counting.

A549 lung cancer cells [3] = assay: Neutron irradiation (252Cf) cell survival, kill constant; format: cell-based; conditions: regression of semi-log cell survival plots, 252Cf neutrons
Protocol: The irradiation was performed by known techniques. The ^252 Cf isotope is a useful source of neutrons for BNCT (Hatanaka 1991, A). The neutron spectrum and beam characteristics are similar to those of reactor fission sources with a most probable energy of about 1 MeV. A 50 mg source of ^252 Cf moderated by water provides a source of 1×10^9 thermal neutrons/cm^2 /sec at a distance of 3 cm (personnel communication Dr. R. Martin). The half-life of ^252 Cf is 2.65 years, thus this provides a simple and reliable source of neutrons for BNCT in locations without suitable nuclear reactors.
This work was performed using sealed ^252 Cf source capsules in a hot cell without transferable radioactive contamination using a double tube arrangement which contained 1.0 ml of A 549 lung cancer cells (maximum cell number 2×10^6 cells/ml and minimum cell number 2×10^3 cells/ml). The cancer cells were exposed to approximately 2×10^8 thermal neutrons per cm^2 per second from 30 mg of ^252 Cf. The flux of neutrons was determined by the irradiation of manganese wire and subsequent analysis of activation. The duration of exposure of cells was 30 sec. 1, 1.5, 2.0 and 4.0 minutes for control groups and boronated compounds. Following radiation exposure, the A 549 lung cancer cells were placed on ice for subculturing and cell survival studies.
All boronated compounds tested worked as agents in boron neutron capture reactions. Cell survival data was calculated from semi-log plots and subjected to a regression analysis to obtain an X coefficient (kill constant) for each compound.

A549 lung cancer cells [4] = assay: Cellular boron uptake by inductively coupled plasma mass spectroscopy; format: cell-based
Protocol: The measurement of total cellular boron was made using inductively coupled mass spectrometry. Boron concentrations were measured against a calibration curve generated with a series of NIST traceable standards. Yttrium and indium (20 ng/ml) internal standards were employed to correct for drift. Analyte recoveries were monitored by the addition of boron spikes (20 ng/ml) to the samples. Analyte response was corrected accordingly. Finally, a boron standard of 60 ng/ml was utilized to ensure continued calibration. […] The lung cancer cell culture with boron exposed cells was washed by centrifugation twice, and the supernate was removed by suction prior to chemical analysis. […] All the reagents for sample preparation were analytical grade. Concentrated nitric acid (1-2 ml) and 30% hydrogen peroxide was applied to the cells.
The nitric acid-hydrogen peroxide cocktail was allowed 96 hours for cellular digestion in tubes that facilitated the venting of generated gases. Intermittent stirring was also performed on the sample tubes. All contents were transformed to boron-free tubes and the final volume was adjusted with distilled water to a 10 ml total volume for each sample tested.

A549 lung cancer cells [5] = assay: Cellular toxicity, colony survival assay in A549 lung cancer cells; conditions: for A549 cell survival (Table 1) / level above which all cell growth is suppressed: seven day experiment
Protocol: as §1

[6] = mice receiving the compound; cited from earlier work
tumor cells [7] = conditions: in vivo; cited from earlier work
[8] = tested on: human glioblastoma multiforme (brain) tumors; assay: Boron biodistribution (tumor, normal brain) in mice bearing human glioblastoma multiforme tumors; format: in vivo; conditions: sodium salt
Protocol: The water soluble sodium salt of the boron containing amino carboxylic compound VIII, was injected into four mice bearing human glioblastoma multiforme (brain) tumors on their hind quarter. One animal was sacrificed after 3 hours, 6 hours, 12 hours, and 24 hours and tissue samples were taken from the tumor, normal brain tissue, blood and muscle. At three hours the tumor contained 52 parts per million of boron and the normal brain contained only 7.6 ppm (a ratio of nearly 7:1). At twelve hours the tumor boron concentration was 37 ppm and the normal brain concentration was 3.7 ppm (a ratio of 10:1).

Row | Molecule | kill constant (absolute value of X coefficient) (A549 lung cancer cells [3]) | Atoms of ^10 B in cell (A549 lung cancer cells [4]) | A549 cell survival (Table 1) (A549 lung cancer cells [5]; 1.25 μg B/ml) | A549 cell survival (Table 1) (A549 lung cancer cells [5]; 2.5 μg B/ml) | A549 cell survival (Table 1) (A549 lung cancer cells [5]; 5.0 μg B/ml) | A549 cell survival (Table 1) (A549 lung cancer cells [5]; 10.0 μg B/ml) | A549 cell survival (Table 1) (A549 lung cancer cells [5]; 15.0 μg B/ml) | A549 cell survival (Table 1) (A549 lung cancer cells [5]; 20.0 μg B/ml) | BNCT treatment outcome (tumor cells [7]) | other results
1 | N[C@@H](Cc1ccc(B(O)O)cc1)C(=O)O [BPA, boronophenylalanine] | – | – | – | – | – | – | – | – | – | deleterious effects (tumor cells [1]; compared with porphyrin): without the deleterious effects seen, for example, with porphyrin
2 | 5(5carboranyl-1-pentynyl) deoxyuridine [CN-V-264] | 2.88 | 50 × 10^9 atoms ^10 B/cell | 10 | 4 | 0 | 0 | 0 | 0 | – | level above which all cell growth is suppressed (A549 lung cancer cells [2]): above 2.5 μg B/ml; cellular uptake (words) (A549 lung cancer cells [4]): lowest in cellular uptake
3 | 2,4-divinyl-nido-o-carboranyldeuteroporphoryin IX [VCDP] | – | – | – | – | – | – | – | – | – | mortality of mice [6]: about 10%
4 | O=BOB1OB2OB([O-])OB(O1)O2.[Na+] [sodium pentaborate] | – | – | – | – | – | – | – | – | treatment failure because of the lack of localization of boron within tumor cells | –
5 | 5(4carboranyl-1-butynyl) uridine [CDU-4] | 2.87 | 10 × 10^9 atoms ^10 B/cell | 22 | 69 | 0 | 0 | 0 | 0 | – | cellular uptake (words) (A549 lung cancer cells [4]): lowest in cellular uptake; level above which all cell growth is suppressed (A549 lung cancer cells [5]): above 2.5 μg B/ml
6 | sodium decahydrodecaborate | – | – | – | – | – | – | – | – | failed due to vascular damage caused by high blood levels of boron | ratio of boron in tumor cells compared to normal cells (tumor cells [1]): high ratios of boron in tumor cells compared to normal cells
7 | 2-amino-5-[2-methyl]-1,2-dicarba-closo-dodecacarboran(12)-1-yl] pentane carboxylic acid [LSK 1-38] | 2.64 | 96 × 10^9 atoms ^10 B/cell | 50 | 33 | 18 | 2 | 0 | 0 | – | cellular uptake (words) (A549 lung cancer cells [4]; listed as LSK1-38): excellent cellular uptake; cellular uptake (words) (A549 lung cancer cells [4]; listed as LSK-138): next highest cellular uptake; toxicity (A549 lung cancer cells [5]; A549 lung cancer cells): low toxicity; level above which all cell growth is suppressed (A549 lung cancer cells [5]): above 10 μg B/ml
8 | 1-amino-3-[2-(7-(2-hydroxyethyl)-1,7-dicarba-nido-dodecacaboran(12)-ylethyl]cyclobutanecarboxylic acid [VIII] | – | – | – | – | – | – | – | – | – | normal brain boron concentration ([8]; 3 hours): 7.6 ppm; normal brain boron concentration ([8]; 12 hours): 3.7 ppm; tumor boron concentration ([8]; 3 hours after injection): 52 parts per million; tumor boron concentration ([8]; 12 hours): 37 ppm
9 | 1-Amino-3-[2-(1,7 dicarba-closo-dodecacaboran(12)-1-yl)ethyl]cyclobutanecarboxylic acid [ACBC] | 2.71 | 2749 × 10^9 atoms ^10 B/cell | 39 | 14 | 8 | 8 | 0 | 0 | – | toxicity (A549 lung cancer cells [2]): low toxicity; level above which all cell growth is suppressed (A549 lung cancer cells [2]): above 10 μg B/ml; cellular uptake (words) (A549 lung cancer cells [4]): greatest cellular uptake; also recorded: almost two orders of magnitude greater in uptake than the other compounds tested; also recorded: excellent cellular uptake
10 | O=C(O)c1ccc(B(O)O)cc1 [p-carboxybenzeneboronic acid] | – | – | – | – | – | – | – | – | failed due to vascular damage caused by high blood levels of boron | ratio of boron in tumor cells compared to normal cells (tumor cells [1]): high ratios of boron in tumor cells compared to normal cells
11 | O=BOB(O)OB(O)OB=O [borax] | – | – | – | – | – | – | – | – | treatment failure because of the lack of localization of boron within tumor cells | –
